Values of other authors in patent publication US20050042289A1, “Tablets and methods for modified release of hydrophylic and other active agents” (Yamanouchi Pharma Technologies, Inc., priority 2003, published 2005).
Where a name gives a salt, the structure may show the parent alone. Read-outs that look alike come from different tables or passages of the source.

Details: in water at 25° C., hemihydrate

water solubility (listed as Cevimeline hydrochloride): 766 mg/mL | water solubility (listed as methylspiro hydrochloride salt): ~800 mg/mL | water solubility (hydrochloride): about 1,400 mg/ml
Structure (SMILES): CC1OC2(CS1)CN1CCC2CC1 (racemic) [SNI-2011, (+/−)-cis-2-methylspiro [1,3-oxathiolane-5,3′-quinuclidine] hydrochloride, hemihydrate]
